Data reported in article PMC10962654 (Journal of Food and Drug Analysis, 2023).
Where a name gives a salt, the structure may show the parent alone. Read-outs that look alike come from different tables or passages of the source.

How the values were obtained:
[1] = MI/R rats, plasma, n = 6
cTn I = test: Plasma cTn I; type: in vivo, Sprague Dawley rats; details: MI/R rats, Sigmoid-Emax model
CK-MB = test: Plasma CK-MB; type: in vivo, Sprague Dawley rats; details: MI/R rats, Sigmoid-Emax model
α-HBDH = test: Plasma α-HBDH; type: in vivo, Sprague Dawley rats; details: MI/R rats, Sigmoid-Emax model
IMA = test: Plasma IMA; type: in vivo, Sprague Dawley rats; details: MI/R rats, Sigmoid-Emax model
[2] = system: CK-MB, IMA, cTn I, and α-HBDH; test: Cardioprotection in MI/R rats judged on the four myocardial injury biomarkers; type: in vivo, Sprague Dawley rats; details: plasma, ELISA, i.v.

CL1 ([1]; GHI-H (GHI 10 mL/kg, i.v.))	CL2 ([1]; GHI-H (GHI 10 mL/kg, i.v.))	K10 ([1]; GHI-H (GHI 10 mL/kg, i.v.))	K12 ([1]; GHI-H (GHI 10 mL/kg, i.v.))	K21 ([1]; GHI-H (GHI 10 mL/kg, i.v.))	Q ([1]; GHI-H (GHI 10 mL/kg, i.v.))	V1 ([1]; GHI-H (GHI 10 mL/kg, i.v.))	V2 ([1]; GHI-H (GHI 10 mL/kg, i.v.))	t1/2α ([1]; GHI-H (GHI 10 mL/kg, i.v.))	CL1 ([1]; GHI-L (GHI […], i.v.))	CL2 ([1]; GHI-L (GHI […], i.v.))	K10 ([1]; GHI-L (GHI […], i.v.))	K12 ([1]; GHI-L (GHI […], i.v.))	K21 ([1]; GHI-L (GHI […], i.v.))	Q ([1]; GHI-L (GHI […], i.v.))	V1 ([1]; GHI-L (GHI […], i.v.))	t1/2α ([1]; GHI-L (GHI […], i.v.))	CL1 ([1]; GHI-M (GHI 5 mL/kg, i.v.))	Compound	Emax (maximal effect) of optimal PK/PD equation, ΔcTn I (cTn I; GHI-L ([…], i.v.))	Emax (maximal effect) of optimal PK/PD equation, ΔCK-MB (CK-MB; GHI-L ([…], i.v.))	further results
46.88 ± 7.65 mL/min/kg	111.9 ± 61.47 mL/min/kg	25.55 ± 19.846 h⁻¹	42.24 ± 19.866 h⁻¹	7.333 ± 1.971 h⁻¹	111.8 ± 61.52 mL/min/kg	0.239 ± 0.209 L/kg	0.855 ± 0.277 L/kg	0.72 ± 0.36 min	63.25 ± 8.27 mL/min/kg	104.4 ± 13.5 mL/min/kg	10.125 ± 0.978 h⁻¹	16.754 ± 1.998 h⁻¹	3.748 ± 0.381 h⁻¹	104.4 ± 13.6 mL/min/kg	0.379 ± 0.071 L/kg	1.44 ± 0.12 min	47.87 ± 4.4 mL/min/kg	C[C@@H]1O[C@@H](OC[C@H]2O[C@@H](Oc3c(-c4ccc(O)c(O)c4)oc4cc(O)cc(O)c4c3=O)[C@H](O)[C@@H](O)[C@@H]2O)[C@H](O)[C@H](O)[C@H]1O [Rutin, rutin]	4.632		CL2 ([1]; GHI-M (GHI 5 mL/kg, i.v.)): 83.63 ± 11.1 mL/min/kg; K10 ([1]; GHI-M (GHI 5 mL/kg, i.v.)): 6.448 ± 1.858 h⁻¹; K12 ([1]; GHI-M (GHI 5 mL/kg, i.v.)): 11.318 ± 3.536 h⁻¹; K21 ([1]; GHI-M (GHI 5 mL/kg, i.v.)): 4.751 ± 1.024 h⁻¹; Q ([1]; GHI-M (GHI 5 mL/kg, i.v.)): 83.63 ± 11.1 mL/min/kg; V1 ([1]; GHI-M (GHI 5 mL/kg, i.v.)): 0.466 ± 0.88 L/kg; V2 ([1]; GHI-M (GHI 5 mL/kg, i.v.)): 1.075 ± 0.133 L/kg; t1/2α ([1]; GHI-M (GHI 5 mL/kg, i.v.)): 2.1 ± 0.6 min
57.82 ± 3.12 mL/min/kg	111 ± 36.42 mL/min/kg	4.878 ± 0.808 h⁻¹	9.545 ± 4.156 h⁻¹	10.071 ± 3.659 h⁻¹	110.9 ± 36.38 mL/min/kg	0.723 ± 0.095 L/kg	0.669 ± 0.07 L/kg	2.04 ± 0.6 min	55.28 ± 6.15 mL/min/kg	98.48 ± 21.73 mL/min/kg	8.039 ± 2.934 h⁻¹	14.117 ± 4.736 h⁻¹	4.662 ± 1.024 h⁻¹	98.48 ± 21.67 mL/min/kg	0.462 ± 0.17 L/kg	1.8 ± 0.54 min	46.8 ± 2.23 mL/min/kg	O=C(O)/C=C/c1ccc(O)cc1 [p-Coumaric acid, p-coumaric acid]	2.907	6.058	Emax (maximal effect) of optimal PK/PD equation, ΔCK-MB (CK-MB; GHI-H (10 mL/kg, i.v.)): 15.798; Emax (maximal effect) of optimal PK/PD equation, ΔCK-MB (CK-MB; GHI-M (5 mL/kg, i.v.)): 15.943; Emax (maximal effect) of optimal PK/PD equation, Δα-HBDH (α-HBDH; GHI-H (10 mL/kg, i.v.)): 89.907; Emax (maximal effect) of optimal PK/PD equation, Δα-HBDH (α-HBDH; GHI-L ([…], i.v.)): 37.993; Emax (maximal effect) of optimal PK/PD equation, Δα-HBDH (α-HBDH; GHI-M (5 mL/kg, i.v.)): 71.86; Emax (maximal effect) of optimal PK/PD equation, ΔIMA (IMA; GHI-H (10 mL/kg, i.v.)): 62.712; Emax (maximal effect) of optimal PK/PD equation, ΔIMA (IMA; GHI-L ([…], i.v.)): 19.558; Emax (maximal effect) of optimal PK/PD equation, ΔIMA (IMA; GHI-M (5 mL/kg, i.v.)): 49.851; V2 ([1]; GHI-L (GHI […], i.v.)): 1.272 ± 0.124 L/kg; CL2 ([1]; GHI-M (GHI 5 mL/kg, i.v.)): 115.3 ± 41 mL/min/kg; K10 ([1]; GHI-M (GHI 5 mL/kg, i.v.)): 4.277 ± 0.897 h⁻¹; K12 ([1]; GHI-M (GHI 5 mL/kg, i.v.)): 11.023 ± 5.384 h⁻¹; K21 ([1]; GHI-M (GHI 5 mL/kg, i.v.)): 10.302 ± 3.876 h⁻¹; Q ([1]; GHI-M (GHI 5 mL/kg, i.v.)): 115.3 ± 41.02 mL/min/kg; V1 ([1]; GHI-M (GHI 5 mL/kg, i.v.)): 0.677 ± 0.122 L/kg; V2 ([1]; GHI-M (GHI 5 mL/kg, i.v.)): 0.7 ± 0.142 L/kg; t1/2α ([1]; GHI-M (GHI 5 mL/kg, i.v.)): 2.22 ± 1.5 min; Emax (maximal effect) of optimal PK/PD equation, ΔcTn I (cTn I; GHI-H (10 mL/kg, i.v.)): 9.007; Emax (maximal effect) of optimal PK/PD equation, ΔcTn I (cTn I; GHI-M (5 mL/kg, i.v.)): 7.258
																		COc1ccc(CCN(C)CCCC(C#N)(c2ccc(OC)c(OC)c2)C(C)C)cc1OC (stereo not shown) [verapamil hydrochloride, Verapamil hydrochloride]			elevated level of the four biomarkers induced by MI/R [2]: declined to different degrees
																		hydroxysafflor yellow A	4.628	11.082	Emax (maximal effect) of optimal PK/PD equation, ΔCK-MB (CK-MB; GHI-M (5 mL/kg, i.v.)): 27.2; Emax (maximal effect) of optimal PK/PD equation, Δα-HBDH (α-HBDH; GHI-L ([…], i.v.)): 49.45; Emax (maximal effect) of optimal PK/PD equation, Δα-HBDH (α-HBDH; GHI-M (5 mL/kg, i.v.)): 88.223; Emax (maximal effect) of optimal PK/PD equation, ΔIMA (IMA; GHI-L ([…], i.v.)): 31.473; Emax (maximal effect) of optimal PK/PD equation, ΔIMA (IMA; GHI-M (5 mL/kg, i.v.)): 49.851; Emax (maximal effect) of optimal PK/PD equation, ΔcTn I (cTn I; GHI-M (5 mL/kg, i.v.)): 7.341
																		kaempferol-3-O-rutinoside		11.04	
